Test results as given in patent publication US20100190826A1, “BENZIMIDAZOLE DERIVATIVE” (priority 2007, published 2010).

What was measured:
[1] = target: T1, human 17βHSD type 5-expressing LNCaP cells (Homo sapiens, UniProt P42330); assay: Cell growth inhibitory activity using LNCaP cells expressing human 17βHSD type 5 (androstenedione-stimulated, CellTiter-Glo); type: cell-based; conditions: androstenedione 10 nM, culturing for 7 days; read-out: LNCaP-17β5 IC50
T1 sequence (P42330 1-323): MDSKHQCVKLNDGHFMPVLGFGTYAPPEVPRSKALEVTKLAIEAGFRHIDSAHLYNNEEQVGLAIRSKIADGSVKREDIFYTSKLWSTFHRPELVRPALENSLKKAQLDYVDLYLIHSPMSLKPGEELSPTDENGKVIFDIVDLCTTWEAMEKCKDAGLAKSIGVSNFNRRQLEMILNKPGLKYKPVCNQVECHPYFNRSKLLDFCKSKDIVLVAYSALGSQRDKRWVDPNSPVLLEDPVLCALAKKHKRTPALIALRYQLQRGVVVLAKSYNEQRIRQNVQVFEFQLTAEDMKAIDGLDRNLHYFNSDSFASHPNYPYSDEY
Description: Subsequently, LNCaP cells expressing human 17βHSD type 5 were constructed from a human prostate cancer-derived cell line, LNCaP cells, and a cell growth inhibitory activity of the compound of the present invention was evaluated.
4. Construction of LNCaP Cells Expressing Human 17βHSD Type 5
A full-length cDNA encoding human 17βHSD type 5 used in the pharmacological test of the present invention was obtained by the PCR method using a cDNA derived from a human lung cancer-derived cell line, A549 cells, as a template. The nucleotide sequence of the obtained cDNA was analyzed by the dideoxyterminator method, and the clone matched with the known human 17βHSD type 5 sequence (GenBank accession No. NM_003739) was selected. The human prostate cancer-derived cell line LNCaP cells were transformed with a plasmid containing the cDNA and the cell line showing stable expression was obtained.
5. Measurement of Cell Growth Capability Using LNCaP Cells Expressing Human 17βHSD Type 5
9000 cells/well of the transformed cells obtained in Section 4 above were seeded in a 96-well plate and cultured overnight. Then, androstenedione, in conjunction with a test compound, was added thereto at a final concentration of 10 nM, followed by culturing for 7 days. After the culturing, number of the cells was counted using a CellTiter-Glo (registered trademark) Luminescent Cell Viability Assay (Promega). The CellTiter-Glo (registered trademark) Luminescent Cell Viability Assay is a reagent that measures the number of the cells by monitoring an intracellular ATP level from the luminescence intensity by luciferase. The experimental manipulation was carried out in accordance with the attached instructions. The cell growth inhibitory activity in the presence of a test compound was calculated as a relative value with respect to the number of the cells in the absence of androstenedione set at proliferation of 0%, and the number of the cells in the presence of androstenedione and in the absence of the test compound set at proliferation of 100%. Then, IC50 values were calculated by the Logistic regression method.

human 17βHSD type 3 = target: T2, human 17βHSD type 3 (Homo sapiens, UniProt P37058); assay: Measurement of enzyme activity of human 17βHSD type 3; type: biochemical; conditions: enzyme source: supernatant of transformed 293 cells; read-out: Type3 IC50
T2 construct: A full-length cDNA encoding human 17βHSD type 3; made in house; host or cells: human fetus kidney-derived 293 cells (transient, 24 h); supernatant of disrupted cells
T2 sequence (P37058 1-310): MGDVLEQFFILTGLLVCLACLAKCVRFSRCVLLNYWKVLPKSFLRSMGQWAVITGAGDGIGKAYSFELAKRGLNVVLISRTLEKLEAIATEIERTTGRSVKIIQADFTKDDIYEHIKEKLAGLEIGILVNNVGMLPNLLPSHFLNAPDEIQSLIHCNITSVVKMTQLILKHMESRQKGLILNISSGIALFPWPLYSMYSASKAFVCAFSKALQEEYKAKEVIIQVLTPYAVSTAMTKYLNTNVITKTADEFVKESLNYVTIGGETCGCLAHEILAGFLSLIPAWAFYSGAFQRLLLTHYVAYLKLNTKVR
From the text: (§1) An excellent selective inhibitory activity against human 17βHSD type 5 of the compounds of the present invention was confirmed by the test method described below. In this connection, the test may be carried out by referring to the details of test procedure described in Maniatis, T. et al., Molecular Cloning—A Laboratory Manual Cold Spring Harbor Laboratory, NY (1982) and the like. In addition, genes encoding human 17βHSD type5 and type3 described in Sections 1 and 2 below, and human 17βHSD type 5 and type 3 may be obtained by the method described in Molecular Endocrinology, 1997, 11(13), 1971-1984.
2. Isolation of Gene Encoding Human 17βHSD Type 3 and Enzyme Purification
A full-length cDNA encoding human 17βHSD type 3 used in the pharmacological test of the present invention was obtained by the PCR method using a cDNA derived from human testis as a template. The nucleotide sequence of the obtained cDNA was analyzed by the dideoxyterminator method, and the clone matched with the known human 17βHSD type 3 sequence (GenBank accession No. BCO34281) was selected. Subsequently, human fetus kidney-derived cell line, 293 cells, were transformed with a plasmid containing the cDNA, and the cells were collected 24 hours later. The collected cells were then disrupted in a phosphate buffer solution containing 5% glycerol (500 μL per 100 mm-dish of a phosphate buffer solution (pH 7.4, 200 mM) containing 5% glycerol) and centrifuged (16000 rpm, 5 min, 4° C.), and the supernatant was used as an enzyme source.
(§2) 3. Measurement of Enzyme Activities of Human 17βHSD Type 5 and Type 3
(§3) Enzyme activity was measured referring to Trevor M. Penning, et al., Biochem. J., 351, 67-77, (2000). Specifically, using a 100 mM potassium phosphate buffer (pH 6.0), (1) the enzyme purified in Section 1 at a final concentration of 10 μg/mL, (2) androstenedione at a final concentration of 300 nM, (3) NADPH at a final concentration of 200 μM, and (4) a test substance, were mixed to react at room temperature for 2 hours, and then the amount of testosterone produced was measured using DELFIA (registered trademark) Testosterone Reagents R050-201 (manufactured by PerkinElmer). The measurement was performed in accordance with the attached instructions. The amount of reduction of testosterone production in the presence of the compound was obtained as a relative value with respect to the amount of testosterone in the absence of the enzyme set at 0% and the amount of testosterone produced in the absence of the compound set at 100%. Then, IC50 values were calculated by the Logistic regression method.

human 17βHSD type 5 = target: T3, human 17βHSD type 5 (Homo sapiens, UniProt P42330); assay: Measurement of enzyme activity of human 17βHSD type 5 (testosterone production from androstenedione); type: biochemical; conditions: purified enzyme 10 μg/mL, androstenedione 300 nM, NADPH 200 μM, pH 6.0, room temperature 2 hours; read-out: Type5 IC50
T3 construct: A full-length cDNA encoding human 17βHSD type 5; GST (cleaved yes); made in house; host or cells: Escherichia coli BL21
T3 sequence (P42330 1-323): T1 sequence (P42330 1-323)
From the text: as §1
1. Isolation of Gene Encoding Human 17βHSD Type 5 and Enzyme Purification
A full-length cDNA encoding human 17βHSD type 5 used in the pharmacological test of the present invention was obtained by the PCR method using a cDNA derived from a human lung cancer-derived cell line, A549 cells as a template. The nucleotide sequence of the obtained cDNA was analyzed by the dideoxyterminator method, and the clone matched with the known human 17βHSD type 5 sequence (GenBank accession No. NM_003739) was selected. Escherichia coli BL21 was transformed with a plasmid containing the cDNA and cultured on a large scale. The proteins were purified by using GSTrapFF column (manufactured by Amersham) and PreScissionProtease (manufactured by Amersham). The purification method was carried out in accordance with the instructions attached to the GSTrapFF column.
as §2, §3

5α-reductase = conditions: patients with BPH, after administration of finasteride; cited from earlier work

Row | Structure (SMILES) | GI50 [1] | IC50 (human 17βHSD type 3) | IC50 (human 17βHSD type 5) | concentration of DHT in the prostate relative to the concentration before the administration (5α-reductase) | increase of the concentration of testosterone in the prostate (5α-reductase)
1 | N#Cc1ccc2c(ccn2-c2cccc(C(=O)O)c2)c1 [Example 1, 3-(5-cyano-1H-indol-1-yl) benzoic acid] | 6680 nM | > 10000 nM | 200 nM |  | 
2 | O=C(O)c1cccc(-n2cc(-c3ccccc3)c3cc(C(F)(F)F)ccc32)c1 [Example 6] | 46 nM | 1800 nM | 50 nM |  | 
3 | O=C(O)c1cccc(-n2c(-c3ccccc3)nc3cc(C(F)(F)F)ccc32)c1 [Example 17] | 66 nM | 6400 nM | 180 nM |  | 
4 | O=C(O)c1cccc(-n2cnc3cc(C(F)(F)F)ccc32)c1 [Example 20] | 101 nM | 7300 nM | 120 nM |  | 
5 | Cc1nc2cc(C(F)(F)F)ccc2n1-c1cccc(C(=O)O)c1 [Example 21] | 102 nM | 4700 nM | 110 nM |  | 
6 | COc1nc2cc(C(F)(F)F)ccc2n1-c1cccc(C(=O)O)c1 [Example 32] | 46 nM |  | 120 nM |  | 
7 | O=C(O)c1cccc(-n2c(Cc3ccccc3)nc3cc(C(F)(F)F)ccc32)c1 [Example 38] | 45 nM | > 10000 nM | 96 nM |  | 
8 | O=C(O)c1cccc(-n2c(COc3ccccc3)nc3cc(C(F)(F)F)ccc32)c1 [Example 44] | 34 nM |  | 40 nM |  | 
9 | COCCc1cn(-c2cccc(C(=O)O)c2)c2ccc(C(F)(F)F)cc12 [Example 47, 3-[3-(2-methoxyethyl)-5-(trifluoromethyl)-1H-indol-1-yl]benzoic acid] | 92 nM | 2500 nM | 180 nM |  | 
10 | O=C(O)c1cccc(-n2c(C(F)(F)F)nc3cc(C(F)(F)F)ccc32)c1 [Example 54, 3-[2,5-bis(trifluoromethyl)-1H-benzimidazol-1-yl]benzoic acid] | 141 nM | 3200 nM | 70 nM |  | 
11 | CC(C)(C)NC(=O)[C@H]1CC[C@H]2[C@@H]3CC[C@H]4NC(=O)C=C[C@]4(C)[C@H]3CC[C@]12C [finasteride] |  |  |  | about 20% | 4 fold
